Experimental data taken from US20040050294A1, “Coloring material and color filter” (Dai Nippon Printing Co., Ltd., priority 1999, published 2004).

Experiment: Solubility in solvents
Assay type: physicochemical
Conditions: for solubility in solvents: PGMEA (methoxypropyl acetate): solvent PGMEA; for solubility in solvents: chloroform: solvent chloroform; for solubility in solvents: cyclohexanone: solvent cyclohexanone; for solubility in solvents: ethyl acetate: solvent ethyl acetate; for solubility in solvents: THF: solvent THF; for solubility in solvents: methanol: solvent methanol

solubility in solvents: PGMEA (methoxypropyl acetate)	solubility in solvents: chloroform	solubility in solvents: cyclohexanone	solubility in solvents: ethyl acetate	solubility in solvents: THF	solubility in solvents: methanol	SMILES
5 % by weight	10 % by weight	10 % by weight	not more than 1 % by weight			CCC(C)(C)OC(=O)N1C(=O)C2=C(c3ccc(Cl)cc3)N(C(=O)OC(C)(C)CC)C(=O)C2=C1c1ccc(Cl)cc1 [DPP, N,N′-bis-tert-amyloxycarbonyl-1,4-diketo-3,6-di(4′-chlorophenyl)pyrrolo-[3,4-c]pyrrole, reference compound]
0.67 % by weight	2 % by weight	5 % by weight	1 % by weight	12.5 % by weight	0.1 % by weight	CCC(C)(C)OC(=O)N/C(=C1/C(=O)NC(c2ccc(Cl)cc2)=C1C(=O)OC)c1ccc(Cl)cc1 [compound 2]
2 % by weight	50 % by weight	10 % by weight	4.55 % by weight	28.57 % by weight	0.2 % by weight	CCC(C)(C)OC(=O)N/C(=C1/C(=O)N(C(=O)OC(C)(C)CC)C(c2ccc(Cl)cc2)=C1C(=O)OC)c1ccc(Cl)cc1 [compound 1]
